# ChEMBL document CHEMBL1126518, “EPSP synthase inhibitor design II. The importance of the 3-phosphate group for ligand binding at the shikimate-3-phosphate site & the identification of 3-malonate ethers as novel 3-phosphate mimics” (Bioorg Med Chem Lett, 1993)
# T1: 3-phosphoshikimate 1-carboxyvinyltransferase (Escherichia coli K-12, UniProt P0A6D3)
# T1 sequence (P0A6D3 whole entry): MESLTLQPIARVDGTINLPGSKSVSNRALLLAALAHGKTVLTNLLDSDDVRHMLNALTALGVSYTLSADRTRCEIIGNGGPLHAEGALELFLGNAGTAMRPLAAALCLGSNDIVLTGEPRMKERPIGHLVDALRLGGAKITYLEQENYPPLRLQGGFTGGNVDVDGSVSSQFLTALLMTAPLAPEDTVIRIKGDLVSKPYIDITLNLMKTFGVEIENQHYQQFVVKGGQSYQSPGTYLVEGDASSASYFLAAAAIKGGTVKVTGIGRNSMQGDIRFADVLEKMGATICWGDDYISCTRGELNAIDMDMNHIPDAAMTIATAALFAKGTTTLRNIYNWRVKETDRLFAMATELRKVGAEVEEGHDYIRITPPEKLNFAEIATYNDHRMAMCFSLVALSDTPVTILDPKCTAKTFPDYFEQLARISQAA
# T2: 3-phosphoshikimate 1-carboxyvinyltransferase (Escherichia coli K-12) (UniProt P0A6D3)
# T2 sequence (whole entry): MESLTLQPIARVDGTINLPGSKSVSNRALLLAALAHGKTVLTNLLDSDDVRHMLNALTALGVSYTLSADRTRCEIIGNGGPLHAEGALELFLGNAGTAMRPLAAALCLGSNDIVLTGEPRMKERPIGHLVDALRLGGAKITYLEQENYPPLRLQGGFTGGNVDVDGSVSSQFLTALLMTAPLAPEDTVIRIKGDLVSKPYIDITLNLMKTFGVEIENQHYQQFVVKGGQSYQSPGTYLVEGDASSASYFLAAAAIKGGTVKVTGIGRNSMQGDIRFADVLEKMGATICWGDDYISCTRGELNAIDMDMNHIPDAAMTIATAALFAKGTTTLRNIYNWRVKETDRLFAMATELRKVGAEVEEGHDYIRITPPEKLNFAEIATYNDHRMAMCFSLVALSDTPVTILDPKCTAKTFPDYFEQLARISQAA
# Substrate: C=C(O[C@@H]1CC(C(=O)O)=C[C@@H](O)[C@H]1O)C(=O)O
# Test: (§1) Enzyme Kinetic activity was calculated against Escherichia coli EPSP(5-enolpyruvyl-shikimate-3-phosphate) Synthase
row,Molecule,Km [mM]
1,"3-phosphoshikimate 1-carboxyvinyltransferase (Escherichia coli K-12), P0A6D3 (protein) MESLTLQPIARVDGTINLPGSKSVSNRALLLAALAHGKTVLTNLLDSDDVRHMLNALTALGVSYTLSADRTRCEIIGNGGPLHAEGALELFLGNAGTAMRPLAAALCLGSNDIVLTGEPRMKERPIGHLVDALRLGGAKITYLEQENYPPLRLQGGFTGGNVDVDGSVSSQFLTALLMTAPLAPEDTVIRIKGDLVSKPYIDITLNLMKTFGVEIENQHYQQFVVKGGQSYQSPGTYLVEGDASSASYFLAAAAIKGGTVKVTGIGRNSMQGDIRFADVLEKMGATICWGDDYISCTRGELNAIDMDMNHIPDAAMTIATAALFAKGTTTLRNIYNWRVKETDRLFAMATELRKVGAEVEEGHDYIRITPPEKLNFAEIATYNDHRMAMCFSLVALSDTPVTILDPKCTAKTFPDYFEQLARISQAA",24

# Biological target: T1, 3-phosphoshikimate 1-carboxyvinyltransferase
# Test: Inhibition of Escherichia coli EPSP(5-enolpyruvyl-shikimate-3-phosphate) Synthase
row,Molecule,IC50 [mM]
1,O=C(O)CO[C@@H]1CC(C(=O)O)=C[C@@H](O)[C@H]1O,> 90
2,O=C(O)C1=C/C(=C\P(=O)(O)O)CCC1,> 90
3,O=C(O)C1=CC(OCP(=O)(O)O)CCC1 (stereo not drawn),> 90
4,O=C(O)C1=CC(C(C(=O)O)C(=O)O)CCC1 (stereo not drawn),> 90
5,O=C(O)C1=CC(CP(=O)(O)O)CCC1 (stereo not drawn),> 90
6,O=C(O)C1=C/C(=C/P(=O)(O)O)CCC1,> 90
7,O=C(CP(=O)(O)O)O[C@@H]1CC(C(=O)O)=C[C@@H](O)[C@H]1O,> 90
8,O=C(O)C1=CC(OP(=O)(O)O)CCC1 (stereo not drawn),7.5
9,O=C(O)CO[C@@H]1CC(C(=O)O)=C[C@@H](OP(=O)(O)O)[C@H]1O,0.1
10,O=C(O)C1=CC(OC(C(=O)O)C(=O)O)CCC1 (stereo not drawn),15
11,C=C(O[C@@H]1CC(C(=O)O)=C[C@@H](O)[C@H]1O)C(=O)O,> 90

# Biological target: T2, 3-phosphoshikimate 1-carboxyvinyltransferase (Escherichia coli K-12)
# Test: as §1
row,Molecule,k cat [s⁻¹]
1,C=C(O[C@@H]1CC(C(=O)O)=C[C@@H](O)[C@H]1O)C(=O)O,0.2
